Like-named read-outs stand apart in the source and are kept apart here.
Legend:
Du145 = assay: Test A: Cytostatic cell culture assay (CC50), SRB, solid tumor cell lines; format: cell-based; details: Homo sapiens, DU-145, 120 h, read-out: CC50 Prostate Du145
Experimental: (§1) Gemcitabine is obtained from Moravek Biochemicals (Brea, Calif.)
(§2) • 1. […] Fix one plate of each cell line with TCA. […] Discard TCA from the plates by flicking them gently. […] Store the plates at room temperature. These plates represent cell counts on day zero. • 4. […] Add 50 μL of the diluted compounds per well. […] Fix the plates with TCA. […] Discard TCA from the plates by flicking them gently. […] Leave at room temperature for 30 minutes. • 9. Flick the plates gently to discard SRB.

HCT116 = assay: as above; format: cell-based; details: Homo sapiens, HCT-116, 120 h, read-out: CC50 Colon HCT116
Experimental: as §1, §2

HS578 = assay: as above; format: cell-based; details: Homo sapiens, Hs578, 120 h, read-out: CC50 Breast HS578
Experimental: as §1, §2

NCI H23 = assay: as above; format: cell-based; details: Homo sapiens, NCI-H23, 120 h, read-out: CC50 Lung NCI H23
Experimental: as §1, §2

human tumor cell lines = assay: Tests A and B, all tumor cell lines together; format: cell-based; details: read-out: CC50 Geometric mean all
Experimental: as §2
Plates were incubated for 5 days with tested compounds.

[1] = tested on: MT-4 T-lymphoid cell line; assay: Test B: Cytostatic cell culture assay (CC50), CellTiter Glo, lymphoid tumor cell lines; details: Homo sapiens, MT4, 120 h, read-out: CC50 T-lymphoid MT-4
Experimental: Test B: Cytostatic Cell Culture Assay (CC50) for Lymphoid Tumor Cell Lines
This test is typically performed with cell lines that are derived from hematological tumors and grow in suspension. An example of such cell line is human MT-4 T-lymphoid cell line used for the determination of cytostatic activity of tested compounds. […] Cells were passaged in suspension twice a week and maintained at densities below 500,000 cells/mL. For CC50 determination, cells were seeded into 384-well plates at 2,000 cells/well in 20 μL of culture medium. Compounds were serially diluted in culture medium and added in triplicate to a final assay volume of 40 μL/well. Plates were incubated for 5 days with tested compounds. At the end of incubation, cell viability was determined by addition of 40 μL of CellTiter Glo reagent followed by a luminescence read-out.
Data analysis and CC50 value calculations were done using GraphPad Prism software (GraphPad Software, San Diego, Calif.) by applying nonlinear regression.

A549 = assay: Test A: Cytostatic cell culture assay (CC50), SRB, solid tumor cell lines; details: Homo sapiens, A549, 120 h, read-out: CC50 Lung A549
Text: Test A: Cytostatic Cell Culture Assay (CC50) for Solid Tumor Cell Lines
This assay is based on quantification of cell mass determination by a colorimetric detection of the cell associated proteins. The assay relies on the ability of sulforhodamine B (SRB) to bind to protein components of cells that have been fixed to tissue-culture plates by trichloroacetic acid (TCA). SRB is a bright-pink aminoxanthene dye with two sulfonic groups that bind to basic amino-acid residues under mild acidic conditions, and dissociate under basic conditions. As the binding of SRB is stochiometric, the amount of dye extracted from stained cells is directly proportional to the cell mass.
Cell lines: All cell lines are obtained from ATCC (Manassas, Va.). Cultivation media containing Glutamax, and trypsin are purchased from Invitrogen (Carlsbad, Calif.). Doxorubicin, Tubercidin, Clofarabine, TCA and SRB are from Sigma-Aldrich (St. Louis, Mo.). Gemcitabine is obtained from Moravek Biochemicals (Brea, Calif.)
• 1. Trypsinize the sub-confluent cells, count them, and adjust the cell concentrations according to the cell counts listed in Table 1. • 2. Distribute the cells into the 96-well plates in 150 μL of media. Incubate the plates overnight in humidified CO2 incubator at 37° C. • 3. Fix one plate of each cell line with TCA. Discard the cultivation media from the plates by flicking them gently and add 100 μL cold 10% (vol/vol) TCA to each well. Incubate the plates at 4 degree refrigerator for 1 hour. Discard TCA from the plates by flicking them gently. Rinse plates four times in a washing basin containing tap water. Store the plates at room temperature. These plates represent cell counts on day zero. • 4. Prepare a set of medium solutions containing various concentrations of tested compounds by making 5-fold serial dilutions in 96-well plate. Add 50 μL of the diluted compounds per well. Include controls with untreated cells and cells treated with doxorubicin, tubercidin, clofarabine and/or gemcitabine. • 5. Incubate the plates for 5 days at 37° C. • 6. Fix the plates with TCA. Discard the cultivation media from the plates by flicking them gently and add 100 μL cold 10% (vol/vol) TCA to each well. Incubate the plates at 4 degree refrigerator for 1 hour. Discard TCA from the plates by flicking them gently. Rinse plates four times in a washing basin containing tap water. • 7. Remove excess water by tapping the plates face down, gently on a paper towel. Allow the plates to air-dry at room temperature. • 8. Add 100 μL of 0.057% SRB solution in 1% (vol/vol) acetic acid to each well of the plates fixed with TCA on day zero and five. Leave at room temperature for 30 minutes. • 9. Flick the plates gently to discard SRB. Rinse the plates four times with 1% (vol/vol) Acetic Acid. • 10. Store the plates at 37° incubator to facilitate faster drying. • 11. Once the plates are completely dry, add 200 μL of 10 mM Tris base solution (pH 10.5) to each well. Leave at room temperature for 30 minutes for SRB to solubilize. • 12. Measure the OD at 500 nm in a microplate reader. • 13. Calculate the percentage of cell-growth inhibition using the next formula: % of control cell growth=100×(ODsample−mean ODday0)/(ODneg control−mean ODday0). For CC50 determination, plot a dose-response curves between the compound concentration and percent of growth inhibition. CC50 values can be derived by fitting dose-response curves using sigmoidal dose response equation.

BT549 = assay: as above; format: cell-based; details: Homo sapiens, BT-549, 120 h, read-out: CC50 Breast BT549
Experimental: as §1, §2

PC3 = assay: as above; format: cell-based; details: Homo sapiens, PC-3, 120 h, read-out: CC50 Prostate PC3
Experimental: as §1, §2

[2] = BT549 breast tumor cells, 5 days, SRB

Row | SMILES | CC50 (Du145) [nM] | CC50 (HCT116) [nM] | CC50 (HS578) [nM] | CC50 (NCI H23) [nM] | CC50 (human tumor cell lines) [nM] | CC50 [1] [nM] | CC50 (A549) [nM] | CC50 (BT549; [2]) [nM] | CC50 (PC3) [nM] | CC50 (BT549) [nM] | melting point [°C]
1 | CSc1ccc(-c2cn([C@@H]3O[C@H](CO)[C@@H](O)[C@H]3O)c3ncnc(N)c23)cc1 [Compound 2c, 4-Amino-5-[4-(methylthio)phenyl]-7-(β-D-ribofuranosyl)-7H-pyrrolo[2,3-d]pyrimidine] | 1870 | 1290 | 1970 | 390 | 1520 | 4400 |  |  |  |  | 
2 | Nc1ncnc2c1c(-c1cccc3ccccc13)cn2[C@@H]1O[C@H](CO)C(O)C1O (stereo partly drawn) [Compound 2d, 4-Amino-5-(naphtalen-1-yl)-7-(β-D-ribofuranosyl)-7H-pyrrolo[2,3-d]pyrimidine] | > 10000 | > 10000 | > 10000 | > 10000 | > 10000 |  |  |  |  |  | 
3 | Nc1ncnc2c1c(-c1ccc3ccccc3c1)cn2[C@@H]1O[C@H](CO)C(O)C1O (stereo partly drawn) [Compound 2e, 4-Amino-5-(naphtalen-2-yl)-7-(β-D-ribofuranosyl)-7H-pyrrolo[2,3-d]pyrimidine] | 1050 | 5670 | 2160 | 5350 | 2880 |  |  |  |  |  | 
4 | Nc1ncnc2c1c(-c1ccoc1)cn2[C@@H]1O[C@H](CO)[C@@H](O)[C@H]1O [Compound 2h, 4-Amino-5-(furan-3-yl)-7-(β-D-ribofuranosyl)-7H-pyrrolo[2,3-d]pyrimidine] | 330 | 15 | 21 | 198 | 78.1 | 170 | 34 | 28 | 418 |  | 
5 | Nc1ncnc2c1c(-c1ccsc1)cn2[C@@H]1O[C@H](CO)[C@@H](O)[C@H]1O [Compound 2i, 4-Amino-7-(β-D-ribofuranosyl)-5-(thiophen-3-yl)-7H-pyrrolo[2,3-d]pyrimidine] | 97 | 7 | 50 | 73 | 60.7 | 124 | 16 | 28 | 1320 |  | 
6 | Nc1ncnc2c1c(-c1cc3ccccc3o1)cn2[C@@H]1O[C@H](CO)[C@@H](O)[C@H]1O [Compound 2j, 4-Amino-5-(benzofuran-2-yl)-7-(β-D-ribofuranosyl)-7H-pyrrolo[2,3-d]pyrimidine] |  | 3740 | 6730 | 5400 | 5540 | 4800 | 7020 |  | 6290 | > 10000 | 
7 | Nc1ncnc2c1c(-c1cc[nH]c1)cn2[C@@H]1O[C@H](CO)[C@@H](O)[C@H]1O [Compound 2l, 4-Amino-5-(1H-pyrrol-3-yl)-7-(β-D-ribofuranosyl)-7H-pyrrolo[2,3-d]pyrimidine] |  | 5.9 | 4.4 | 33 | 11.4 | 24 | 5.3 | 8 | 29 |  | 
8 | Nc1ncnc2c1c(-c1cn[nH]c1)cn2[C@@H]1O[C@H](CO)[C@@H](O)[C@H]1O [Compound 2m, 4-Amino-5-(1H-pyrazol-4-yl)-7-(β-D-ribofuranosyl)-7H-pyrrolo[2,3-d]pyrimidine] |  | 970 | 12 | 144 | 81.9 | 110 | 192 | 50 | 14 |  | 
9 | Nc1ncnc2c1c(-c1cc[nH]n1)cn2[C@@H]1O[C@H](CO)[C@@H](O)[C@H]1O [Compound 2n, 4-Amino-5-(1H-pyrazol-3-yl)-7-(β-D-ribofuranosyl)-7H-pyrrolo[2,3-d]pyrimidine] |  | 18 | 8 | 35 | 17.1 | 18 |  |  | 15 |  | 135
10 | C#Cc1cn([C@@H]2O[C@H](CO)[C@@H](O)[C@H]2O)c2ncnc(N)c12 [Compound 2o, 4-Amino-5-ethynyl-7-(β-D-ribofuranosyl)-7H-pyrrolo[2,3-d]pyrimidine] |  | 2 | 1 | 1 | 1.9 | 1 |  |  | 11 |  | 
11 | Nc1ncnc2c1c(-c1c[nH]nn1)cn2[C@@H]1O[C@H](CO)[C@@H](O)[C@H]1O [Compound 2p, 4-Amino-7-(β-D-ribofuranosyl)-5-(1H-1,2,3-triazol-4-yl)-7H-pyrrolo[2,3-d]pyrimidine] |  | 4 | 3 | 4 | 5.2 | 18 |  |  | 5 |  | 286 to 288
12 | Nc1ncnc2c1c(-c1nccs1)cn2[C@@H]1O[C@H](CO)[C@@H](O)[C@H]1O [Compound 2q, 4-Amino-7-(β-D-ribofuranosyl)-5-(thiazol-2-yl)-7H-pyrrolo[2,3-d]pyrimidine] |  | 93 | 15 | 5 | 25.6 | 42 |  |  | 42 |  | 
13 | Nc1ncnc2c1c(-c1c[nH]cn1)cn2[C@@H]1O[C@H](CO)[C@@H](O)[C@H]1O [Compound 2r, 4-Amino-5-(1H-imidazol-4-yl)-7-(β-D-ribofuranosyl)-7H-pyrrolo[2,3-d]pyrimidine] |  | 3 | 2 | 2 | 3.8 | 28 |  |  | 2 |  | 
14 | Nc1ncnc2c1c(-c1ncc[nH]1)cn2[C@@H]1O[C@H](CO)[C@@H](O)[C@H]1O [Compound 2s, 4-Amino-5-(1H-imidazol-2-yl)-7-(β-D-ribofuranosyl)-7H-pyrrolo[2,3-d]pyrimidine] |  | 2 | 1 | 6 | 3.8 | 49 |  |  | 1 |  | 153 to 156
15 | C[C@@]1(O)[C@H](O)[C@@H](CO)O[C@H]1n1cc(-c2ccccc2)c2c(N)ncnc21 [Compound 7a, 4-Amino-7-(2-C-methyl-β-D-ribofuranosyl)-5-phenyl-7H-pyrrolo[2,3-d]pyrimidine] |  |  |  |  |  |  |  |  |  |  | 129
16 | COc1ccc(-c2cn([C@@H]3O[C@H](CO)[C@@H](O)[C@@]3(C)O)c3ncnc(N)c23)cc1 [Compound 7b, 4-Amino-5-(4-methoxyphenyl)-7-(2-C-methyl-β-D-ribofuranosyl)-7H-pyrrolo[2,3-d]pyrimidine] |  |  |  |  |  |  |  |  |  |  | 127
17 | COc1cccc2c1C(=O)c1c(O)c3c(c(O)c1C2=O)C[C@@](O)(C(=O)CO)C[C@@H]3O[C@H]1C[C@H](N)[C@H](O)[C@H](C)O1 [Doxorubicine, reference compound] |  | 11 | 6 | 5 | 10.1 |  | 16 | 10 | 21 |  | 
